In patent US8729113B2 (Hoffmann-La Roche Inc., priority 2008, dated 2014):

Molecular target: TAAR1 (Mus musculus (Mouse), UniProt Q923Y8)
Test: Radioligand binding assay on TAAR1: Kd of the radioligand
Settings: binding assay at 4° C.; species of TAAR1 not stated; read-out: calculated Kd value of the radioligand
Experimental: Cells at confluence were rinsed with ice-cold phosphate buffered saline without Ca^2+ and Mg^2+ containing 10 mM EDTA and pelleted by centrifugation at 1000 rpm for 5 min at 4° C. The pellet was then washed twice with ice-cold phosphate buffered saline and cell pellet was frozen immediately by immersion in liquid nitrogen and stored until use at −80° C. Cell pellet was then suspended in 20 ml HEPES-NaOH (20 mM), pH 7.4 containing 10 mM EDTA, and homogenized with a Polytron (PT 3000, Kinematica) at 10,000 rpm for 10 s. The homogenate was centrifuged at 48,000×g for 30 min at 4° C. and the pellet resuspended in 20 ml HEPES-NaOH (20 mM), pH 7.4 containing 0.1 mM EDTA (buffer A), and homogenized with a Polytron at 10,000 rpm for 10 s. The homogenate was then centrifuged at 48,000×g for 30 min at 4° C. and the pellet resuspended in 20 ml buffer A, and homogenized with a Polytron at 10,000 rpm for 10 s. Protein concentration was determined by the method of Pierce (Rockford, Ill.). […]
Binding assay was performed at 4° C. in a final volume of 1 ml, and with an incubation time of 30 min. […] The tubes and filters were then washed 3 times with 1 ml aliquots of cold buffer B. Filters were not dried and soaked in Ultima gold (45 μl/well, Packard Instrument Company) and bound radioactivity was counted by a TopCount Microplate Scintillation Counter (Packard Instrument Company).

Q: How did the Kd turn out when `c1ccc2c(c1)CCCC2C1=NCCN1` (racemic) [[^3H]-rac-2-(1,2,3,4-tetrahydro-1-naphthyl)-2-imidazoline] was run?
A: 60 nM
